Molecules are shown by their SMILES.

In the assay the target is T1, Prostaglandin D2 receptor 2 (Homo sapiens, UniProt Q9Y5Y4).
T1 sequence (Q9Y5Y4 whole entry): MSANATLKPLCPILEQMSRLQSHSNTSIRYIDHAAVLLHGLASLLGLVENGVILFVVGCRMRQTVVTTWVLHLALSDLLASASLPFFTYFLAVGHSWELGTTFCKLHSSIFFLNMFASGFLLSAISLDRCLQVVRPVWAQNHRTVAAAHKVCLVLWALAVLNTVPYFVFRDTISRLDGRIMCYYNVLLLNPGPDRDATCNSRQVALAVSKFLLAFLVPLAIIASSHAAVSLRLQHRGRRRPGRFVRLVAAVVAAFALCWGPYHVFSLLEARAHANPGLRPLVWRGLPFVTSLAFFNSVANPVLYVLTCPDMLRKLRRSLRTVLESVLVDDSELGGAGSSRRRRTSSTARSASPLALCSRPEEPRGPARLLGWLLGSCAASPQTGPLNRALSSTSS
Put plainly: Radioligand Binding Assay: Radioligand binding was performed using filtration or scintillation proximity assay (SPA) technology. SPA assays were done at room temperature in 10 mM HEPES pH 7.4, 1 mM EDTA containing 2 mM MnCl2 and 16 nM [3H]-PGD2 (PerkinElmer, Waltham, Mass.) (164 Ci mmol-1), in a final volume of 0.05 mL. Competing ligands were diluted in dimethylsulfoxide and added using very low volumes (500 nL). The reaction was initiated by the addition of a mixture of 3.52 ug of membrane protein prepared from a human embryonic kidney (HEK)-hCRTH2 cell line adhered to 140 ug of wheatgerm agglutinin SPA beads (PerkinElmer). Total and non-specific binding were determined in the absence and the presence of a CRTH2 antagonist, respectively. The reaction was routinely conducted for 60 minutes at room temperature followed by centrifugation for 5 minutes at 1000 RPM. The radioactivity was measured with a TopCountNXT (PerkinElmer). Filtration binding assays were done in a similar way with minor differences. The assay volume was 0.20 mL and competing ligands in dimethylsulfoxide were added in 2 uL. [3H]-PGD2 was used at 0.6 nM, and reactions were initiated by the addition of 10 ug of membrane protein. Reactions were terminated by filtration through GF/C filter plates (PerkinElmer) presoaked in 10 mM HEPES. After washing with buffer, plates were dried in a 50° C. oven for 1 h, scintillation cocktail was added and radioactivity was measured. Results determined using the SPA-based assay were similar to those from the filtration binding assay.
Consider `O=C(CCCCc1cc2cc(C(=O)N[C@@H]3CCCc4cc(F)ccc43)ccc2c(=O)n1-c1ccc(F)cc1)NS(=O)(=O)C1CC1`, for which the inhibition constant Ki amounted to 10.9 nM.
For `O=C(O)CCCCc1cc2cc(-c3noc(Cc4ccc(F)cc4)n3)ccc2c(=O)n1-c1ccc(F)cc1`, the Ki is 7.79 nM.
On to `O=C(O)CCCCc1cc2cc(-c3noc(C4Cc5ccccc5C4)n3)ccc2c(=O)n1-c1ccc(F)cc1`, for which the Ki is 21.5 nM.
For the compound `CC1(c2nc3ccc(F)cc3o2)CC(c2ccc3c(=O)n(-c4ccc(F)cc4)c(CCCCC(=O)O)c(Cl)c3c2)=NO1` (stereo not given), the Ki was found to be 79.1 nM.
Turning to `CC1(c2nc3ccc(F)cc3o2)CC(c2ccc3c(=O)n(-c4ccc(F)cc4)c(CCCCC(=O)O)cc3c2)=NO1` (stereo not given), the Ki amounted to 25.4 nM.

Values taken from ChEMBL document CHEMBL3886569, “Substituted isoquinolines as CRTH2 receptor modulators” (2016).
